According to patent EP1691802B1, “METHODS FOR THE AMELIORATION OF ENVIRONMENTAL OXIDANT STRESS AND THE REGULATION OF BENEFICIAL GENES” (The Ester C Company, priority 2003, dated 2005):

Tested on: white blood cells
Design: species or system human
Conditions: in vivo, po
Method: Three vitamin C preparations and a placebo were tested to determine white blood cell bioavailability and pharmacokinetics in a double-blind, randomized, crossover study in human subjects. The three vitamin C and placebo compositions were • "Test A": ascorbic acid USP • "Test B": a mineral ascorbate (calcium ascorbate) + vitamin C metabolites (principally calcium threonate), in which the metabolites are produced in situ by a process such as disclosed in US Patent 4,822,816 • "Test C": a mineral ascorbate (calcium ascorbate) + vitamin C metabolites (calcium threonate), manufactured by adding calcium threonate to calcium ascorbate. • "Test D": placebo All three vitamin C compositions were standardized to 1000mg vitamin C equivalent per dose tablets.
A total of 15 subjects (all male between the ages of 21 and 50) were divided into three groups of five and were entered into a four-way crossover design study to minimize inter-subject variability, i.e., in which the subjects act as their own controls. […]
Vitamin C levels of the urine, plasma and white blood cells were determined by HPLC. The areas under the curve (AUC) for the ascorbic acid levels detected in white cells, plasma and urine was determined for each group using the trapezoidal rule (Selby, 1979). The data and the standard deviation was analyzed using repeated-measures analysis of variance ([…]). […]

For `O=C1O[C@H]([C@@H](O)CO)C(O)=C1O` [Test A, ascorbic acid], the “levels of white cell vitamin C in smokers” value was “lowest levels”.
